Assay [1] has as its target T1, melon (Cucumis melo) fruit alkaline alpha-galactosidase Form II (Cucumis melo, UniProt Q84NI6).
T1 construct: native 102 kDa, denatured 92 kDa; assayed at pH 7.5
T1 sequence (Q84NI6 1-772): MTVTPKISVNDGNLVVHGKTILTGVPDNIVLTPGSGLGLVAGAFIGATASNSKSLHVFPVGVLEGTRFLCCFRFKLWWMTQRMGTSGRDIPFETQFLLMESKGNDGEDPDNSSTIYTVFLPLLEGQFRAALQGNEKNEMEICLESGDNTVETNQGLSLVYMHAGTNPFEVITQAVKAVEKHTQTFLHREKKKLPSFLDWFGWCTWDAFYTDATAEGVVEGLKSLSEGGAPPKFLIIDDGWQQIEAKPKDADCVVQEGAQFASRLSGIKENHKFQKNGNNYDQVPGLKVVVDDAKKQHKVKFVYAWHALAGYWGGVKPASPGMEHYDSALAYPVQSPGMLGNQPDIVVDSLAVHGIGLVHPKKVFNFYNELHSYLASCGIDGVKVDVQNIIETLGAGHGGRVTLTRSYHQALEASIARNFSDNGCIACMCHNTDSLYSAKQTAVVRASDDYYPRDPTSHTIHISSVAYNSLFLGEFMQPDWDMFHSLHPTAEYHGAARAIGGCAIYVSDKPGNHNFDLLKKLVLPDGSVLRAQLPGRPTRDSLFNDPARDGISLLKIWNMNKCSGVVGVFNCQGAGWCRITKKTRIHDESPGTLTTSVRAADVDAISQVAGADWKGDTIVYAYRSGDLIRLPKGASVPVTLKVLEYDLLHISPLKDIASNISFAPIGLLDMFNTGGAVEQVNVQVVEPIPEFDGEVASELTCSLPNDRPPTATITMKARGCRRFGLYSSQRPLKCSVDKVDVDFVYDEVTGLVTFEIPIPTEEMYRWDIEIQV
In words: Substrate kinetics (Lineweaver-Burk) of alkaline alpha-galactosidase Form II. The format is biochemical, muskmelon (Cucumis melo L. cv C-8). On the procedure: (§1) For routine analysis and monitoring the activity in the purification steps, alpha-galactosidase was assayed as described by Smart and Pharr (“Characterization of alpha-galactosidase from cucumber leaves”, Plant Physiology, 66:731-734, 1980), using p-nitrophenyl alpha-galactoside (pNPG) as substrate. Reaction was initiated by adding 50 μl enzyme aliquot to either 200 μl 100 mM pH 5.5 McIlvaine buffer or 100 mM pH 7.5 HEPES buffer, containing 5 mM pNPG at 35 C. The reaction was terminated after 10 min by adding 1 ml of 5% (w/v) Na2CO3 and activity expressed as nmol nitrophenol per min as measured at 410 nm. […] The assay was started by adding 50 μl enzyme preparation at 35 C and terminated after 10 to 20 min by 2 min boiling.
(§2) The fractions from the DEAE-Sepharose chromatography which were active at pH 7.5 were pooled and dialyzed against buffer A for 12 h prior to loading onto an HPLC ion exchange chromatography column (Mono-Q HR 5/5, Pharmacia, Uppsala, Sweden), previously equilibrated with buffer A. Bound proteins were eluted with a linear gradient of 0.1 to 0.45 M NaCl and the active fractions were detected using pNPG as substrate at pH 7.5 as described above. […] For the further purification of Form II the active fractions of the peak II were chromatographed on hydrophobic interaction chromatography. The fractions were pooled, brought to 1 M (NH4)2SO4 and loaded on to a hydrophobic interaction column (phenyl-Sepharose CL-4B, 0.5×12 cm, Pharmacia, Uppsala, Sweden) previously equilibrated with buffer A containing 1 M (NH4)2SO4. The protein was eluted with a reverse stepwise gradient from 1 to 0 M (NH4)2SO4 with 50 mM intervals in buffer A. Fractions containing the activity peak were collected and dialyzed for 12 h against buffer A and the dialysate was concentrated by reverse dialysis against solid sucrose. The enzyme, partially purified by hydrophobic interaction chromatography, was used for the characterization of Form II. The active fractions from the hydrophobic interaction column were further purified. Active fractions were separated electrophoretically using a Mini Prep Cell (Bio-Rad Laboratories, Hercules, Calif.) for discontinuous native-PAGE with 7% polyacrylamide, according to manufacturer's instructions. Fractions (0.25 ml/fraction) were assayed at pH 7.5 with pNPG as substrate for the activity. The active fractions were pooled, concentrated by Vivaspin Concentrator (Vivascience LTD, Lincoln, England), and run in a 8% SDS-PAGE. Proteins in the SDS-PAGE were identified using Coomassie Blue staining.

For assay [2], the system named is Cucurbita pepo leaf alkaline alpha-galactosidase ("LIV" enzyme). The conditions noted are these: Gaudreault and Webb; alkaline form; cited from earlier work.
Assay [3] concerns the target T2, melon (Cucumis melo) fruit alkaline alpha-galactosidase Form I (Cucumis melo, UniProt Q84NI7).
T2 sequence (Q84NI7 1-754): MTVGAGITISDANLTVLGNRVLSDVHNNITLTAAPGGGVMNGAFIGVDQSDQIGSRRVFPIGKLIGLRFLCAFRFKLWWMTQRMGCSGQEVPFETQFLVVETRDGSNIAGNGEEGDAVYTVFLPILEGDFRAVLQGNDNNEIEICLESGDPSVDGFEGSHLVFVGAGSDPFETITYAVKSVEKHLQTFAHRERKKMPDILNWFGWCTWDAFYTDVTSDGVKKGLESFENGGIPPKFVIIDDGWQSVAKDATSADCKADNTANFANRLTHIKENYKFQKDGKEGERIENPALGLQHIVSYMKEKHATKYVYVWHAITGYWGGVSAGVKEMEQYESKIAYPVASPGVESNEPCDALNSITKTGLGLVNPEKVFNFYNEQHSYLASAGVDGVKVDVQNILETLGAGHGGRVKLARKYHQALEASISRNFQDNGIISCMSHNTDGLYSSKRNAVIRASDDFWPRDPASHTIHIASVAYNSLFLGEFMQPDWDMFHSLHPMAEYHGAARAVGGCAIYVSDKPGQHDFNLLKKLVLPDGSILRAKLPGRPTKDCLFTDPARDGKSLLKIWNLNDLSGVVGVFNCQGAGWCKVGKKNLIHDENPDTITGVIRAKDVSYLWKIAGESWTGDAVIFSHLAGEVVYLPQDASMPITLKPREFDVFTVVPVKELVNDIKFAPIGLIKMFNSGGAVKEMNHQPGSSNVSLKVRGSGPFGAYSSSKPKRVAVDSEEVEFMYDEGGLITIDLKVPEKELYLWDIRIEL
In words: Substrate kinetics (Lineweaver-Burk) of alkaline alpha-galactosidase Form I. How it is done:
as §1, §2
Therefore, the active fractions from the Mono-Q column were used for the characterization of Form I. In addition, the Form I enzyme was further purified, as described in the following section.

Our source for the Vmax/Km ratio, Vmax and Km values is patent publication US7514254B2, “Plant-derived alkaline alpha-galactosidase” (The State of Israel, Ministry of Agriculture & Rural …, priority 1998, dated 2009).

The Km is the substrate concentration at which the rate is half of its maximum. `OC[C@H]1O[C@H](OC[C@H]2O[C@H](OC[C@H]3O[C@H](O[C@]4(CO)O[C@H](CO)[C@@H](O)[C@@H]4O)[C@H](O)[C@@H](O)[C@@H]3O)[C@H](O)[C@@H](O)[C@H]2O)[C@H](O)[C@@H](O)[C@H]1O` [Stachyose, O-alpha-D-galactopyranosyl-(1-6)-O-alpha-D-galactopyranosyl-(1-6)-O-alpha-D-glucopyranosyl-(1-2)-beta-D-fructofuranoside]: the Vmax/Km ratio in assay [1] is reported as 0.61; in assay [3] it was 0.06. Moreover, the Vmax in assay [1] (Lineweaver-Burk) came to 2.2 μmol mg^−1 protein min^−1; in assay [3] (Lineweaver-Burk), 0.24 μmol mg^−1 protein min^−1. For the same compound, in assay [2], the Michaelis constant (Km) is 4.5 mM.
